Where two headings read alike, the source gives them in different places.
How the values were obtained:
[1] = mouse, in vivo
Protocol: (§1) -6, -4, -2, and 0 hours before drug administration and 0.25, 0.5, 1, 3, 6, 9, and 12 hours after drug administration, the experimental mice were placed in a restrainer, a 2 mm incision was made at the tip of the tail, and about 40-50 µL of blood was collected into a heparin capillary tube while massaging the tail. […] Blood samples were transferred to 2 mL tubes and centrifuged at 2000× g for 10 minutes to separate the serum, which was then transferred to new tubes at about 20-25 µL per sample. […] The internal standard D, L-serine-2,3,3-d3 stock solution was prepared at a concentration of 60 µg/mL for preparing a calibration curve and at 2 µg/mL for spiking into samples. To prepare the reagents required for creating the calibration curve, 10 µL of the diluted stock solution and 10 µL of the internal standard solution (D, L-serine-2,3,3-d3, 60 µg/mL) were spiked into 980 µL of a solvent with a ratio of acetonitrile/water/trifluoroacetic acid (v/v/v, 96/5/0.5). […] The mixed solution was centrifuged at 16,000 g for 10 minutes, and the supernatant was separated and injected into LC-MS/MS at a volume of 5 µL. The ultra-high-performance liquid chromatography system consisted of a pump (LC-40D X3), an autosampler (SIL-40CX3), a column oven (CTO-40C), and a system controller (SCL-40) from Shimadzu (Duisburg, Germany), and the mass spectrometer used was a QTRQP LC-MS/MS 6500+ from SCIEX (Framingham, MA, USA). The column used was a CROWNPAK CR-I (+) [3.0 x 150 mm, 5 micron] from DAICEL (Osaka, Tokyo), and the column oven was set to 30°C. Acetonitrile/water/trifluoroacetic acid (v/v/v, 96/5/0.5) was used as the mobile phase, and the elution was performed under isocratic conditions. Mass spectrometry detection was performed under multiple reaction monitoring (MRM) conditions in ESI+ mode. MS/MS parameters were ion spray voltage, 5500 V; temperature 500°C; curtain gas, 30 psi; ion source gas (GS1), 50 psi, ion source gas (GS2), 50 psi. The declustering potential (DP), entrance potential (EP), collision energy (CE), and collision cell exit potential (CXP) values under MRM conditions were optimized in manual tuning mode using a syringe infusion pump, and mass spectrometric analysis was performed. Data acquisition and processing were performed using AB SCIEX Analyst software.

[2] = in vivo; settings: mouse
Protocol: as §1

[3] = Storage stability in aqueous solution (discoloration, precipitation); format: physicochemical; settings: stored in an aqueous solution at room temperature for one month
[4] = system: valproic acid (VPA)-induced autism model mice; experiment: Three-chamber test of social interaction in VPA-induced autism model mice; format: in vivo; settings: oral, 14 days from day 21 after birth; 3-chamber test 35 days after birth; versus vehicle-treated VPA mice
Protocol: In order to perform a behavioral experiment on valproic acid (VPA)-induced autism model mice using L-serine hydrochloride prepared in Example 3, 600 mg/kg of VPA dissolved in 0.9% NaCl saline was administered subcutaneously to pregnant dams to obtain 14 VPA-induced autism model mice. Meanwhile, 8 pups born to the dams that were not administered VPA were used as a control group. […] The drug was orally administered at a dose of 10 mL/kg per day based on the individual's body weight, which is equivalent, on a molar basis, to administering 400 mg/kg of L-serine hydrochloride to humans.
Thirty-five days after birth, the mice's social interaction abilities were tested using a three-chamber test. Social novelty was evaluated based on the interaction time during an initial encounter with a novel mouse compared with a re-encounter with a familiar mouse. Sociability reflects the degree of social interaction between a mouse and another mouse, and was measured by evaluating the interaction time that the mouse spent interacting with another mouse located in one side of an empty chmber.

[5] = Mouse PK experiment (serum levels by LC-MS/MS)
Protocol: as §1

SMILES | Cl/F [1] | AUC(0-t) [2] [µg·h/mL] | Cmax [2] [µg/mL] | Tmax [2] [min] | half-life [2] [min] | discoloration or precipitation [3] | sociability [4] | social novelty [4] | Cl/F ([5]; mouse PK, serum) | AUC(0-t) ([5]; mouse, in vivo) [µg·h/mL] | Cmax ([5]; mouse, in vivo) [µg/mL] | Tmax ([5]; mouse, in vivo) [min] | half-life ([5]; mouse, in vivo) [min]
N[C@@H](CO)C(=O)O [L-Serine, L-serine] | 4.92±1.20 (mg/kg)/(µg/mL)/h | 81.5 ± 22.5 | 67.5 ± 25.9 | 15 | 72.6 ± 28.8 | – | – | – | – | – | – | – | –
Cl.N[C@@H](CO)C(=O)O [L-Serine Hydrochloride (Example 3), L-serine hydrochloride] | – | – | – | – | – | no discoloration or precipitation occurred | statistically significant improvements | statistically significant improvements | 3.77±0.94 (mg/kg)/(µg/mL)/h | 141 ± 37.4 | 77.7 ± 8.49 | 37.2 | 108 ± 16.2
